Results from US6130053A, “Method for selecting compounds for inhibition of neoplastic lesions” (priority 1999, dated 2000).
Entries after “also recorded” stand apart in the source; their conditions may differ. Read-outs that look alike come from different tables or passages of the source.

Assays:
[1] = test system: [H][C@@]12COP(=O)(O)O[C@@]1([H])[C@@H](O)[C@H](n1cnc3c(=O)[nH]c(N)nc31)O2; experiment: purified protein, by the assay type; settings: 30.0 °C
[2] = test system: SW-480 colon adenocarcinoma cells; experiment: Apoptosis inducing activity, fold induction (fold stimulation, DNA fragmentation ELISA); settings: for fold induction at 100 µM: Homo sapiens, SW480, read-out: Fold induction of apoptosis at 100 μM, 100 μM
cGMP PDE = cGMP PDE inhibition assay, enzyme purified from HT-29 cultured tumor cells; type: biochemical, human
Method: The mixture is incubated at 30° C. for 10 minutes with isolated PDE of this invention. Reactions are terminated, for example, by boiling the reaction mixture for 75 seconds. After cooling on ice, 100 μl of 0.5 mg/ml snake venom (O. Hannah venom available from Sigma) is added and incubated for 10 minutes at 30° C. This reaction is then terminated by the addition of an alcohol, e.g. 1 ml of 100% methanol. Assay samples are applied to 1 ml Dowex 1-X8 column; and washed with 1 ml of 100% methanol. The amount of radioactivity in the breakthrough and the wash from the column is combined and measured with a scintillation counter. The degree of phosphodiesterase inhibition is determined by calculating the amount of radioactivity in drug-treated reactions and comparing against a control sample (a reaction mixture lacking the tested compound but with drug solvent).

[3] = biological target: T1, COX-I (purified cyclooxygenase Type 1) (Ovis aries, UniProt P05979); experiment: COX inhibition assay, purified cyclooxygenase (Type 1); type: biochemical, ram; settings: for COX-I inhibition: FIG. 5
T1 construct: purified cyclooxygenase from ram seminal vesicles; from tissue; host or cells: ram seminal vesicles
T1 sequence (P05979 25-600): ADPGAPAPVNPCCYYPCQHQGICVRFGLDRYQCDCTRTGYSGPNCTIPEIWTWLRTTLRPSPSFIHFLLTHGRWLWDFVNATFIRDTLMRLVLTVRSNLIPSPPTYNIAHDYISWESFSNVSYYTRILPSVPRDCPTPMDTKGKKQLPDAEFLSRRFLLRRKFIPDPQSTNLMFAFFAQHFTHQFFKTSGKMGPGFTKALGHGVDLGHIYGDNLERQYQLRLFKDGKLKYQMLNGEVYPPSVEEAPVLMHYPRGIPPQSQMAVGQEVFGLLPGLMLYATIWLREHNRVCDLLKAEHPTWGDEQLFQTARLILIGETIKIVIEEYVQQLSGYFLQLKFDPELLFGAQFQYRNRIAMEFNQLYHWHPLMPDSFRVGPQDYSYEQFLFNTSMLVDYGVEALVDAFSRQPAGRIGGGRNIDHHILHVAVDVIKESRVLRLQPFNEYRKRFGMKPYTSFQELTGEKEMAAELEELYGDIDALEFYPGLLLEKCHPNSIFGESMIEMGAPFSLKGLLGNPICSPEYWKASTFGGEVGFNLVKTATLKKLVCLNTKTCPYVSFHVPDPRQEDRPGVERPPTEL

native bovine PDE5 = settings: read-out: Kd (cGMP binding, native bovine PDE5); cited from earlier work
[4] = test system: PDE peak B (novel cGMP-specific phosphodiesterase); experiment: Inhibition of cGMP hydrolysis by PDE peak B (novel cGMP-specific PDE) from SW480 cells; type: biochemical, human; settings: for Km: absence of cAMP
HT-29 cells (cAMP level) = experiment: cAMP production in cultured HT-29 cells (radioimmunoassay); type: cell-based, human; settings: 30 minutes
HT-29 cells = experiment: Growth inhibition of HT-29 cells; type: cell-based, human
[5] = test system: premalignant lesions in mammary gland organ culture; experiment: Inhibition of premalignant lesions in mammary gland organ culture; type: cell-based, mouse; settings: FIG. 17
Method: Test compounds identified by the above methods can be tested for antineoplastic activity by their ability to inhibit the incidence of preneoplastic lesions in a mammary gland organ culture system.
For example, female BALB/c mice can be treated with a combination of estradiol and progesterone daily, in order to prime the glands to be responsive to hormones in vitro. The animals are sacrificed and thoracic mammary glands are excised aseptically and incubated for ten days in growth media supplemented with insulin, prolactin, hydrocortisone, and aldosterone. DMBA (7,12-dimethylbenz(a)anthracene) is added to medium to induce the formation of premalignant lesions. Fully developed glands are then deprived of prolactin, hydrocortisone, and aldosterone, resulting in the regression of the glands but not the premalignant lesions.
The test compound is dissolved in DMSO and added to the culture media for the duration of the culture period. At the end of the culture period, the glands are fixed in 10% formalin, stained with alum carmine, and mounted on glass slides. […]
The extent of the area occupied by the mammary lesions can be quantitated by projecting an image of the gland onto a digitation pad. […] The space covered by each of the unregressed structures is also outlined on the digitization pad and quantitated by the computer.

PDE peak A (PDE5) = biological target: T2, PDE peak A (PDE5) (Homo sapiens, UniProt O76074); experiment: Inhibition of cGMP hydrolysis by PDE peak A from SW480 cells; type: biochemical
T2 construct: approximately four hundred million SW480 cells at confluence were scraped; endogenous in cells; host or cells: SW480 human colon adenocarcinoma cells (DEAE-Trisacryl M fraction)

[6] = test system: PDE peak B (novel cGMP-specific phosphodiesterase); settings: cited from earlier work
[7] = Homo sapiens, HT-29; read-out: Growth % Inhibition at 100 μM

PDE peak A (PDE5) (Homo sapiens)
Km [1]: 1.07 µM | Vmax [1]: 0.16 nmol/min/mg

COc1cc(/C=C2/C(C)=C(CC(=O)O)c3cc(F)ccc32)cc(OC)c1OC [B, (Z)-5-Fluoro-2-methyl-1-(3,4,5-trimethoxybenzylidene)-3-acetic acid]
fold induction at 100 µM [2]: 3.4 | cGMP PDE % Inhibition at 10 μM (cGMP PDE): < 25% | cGMP PDE inhibition at 20 μM (cGMP PDE; 20 μM, FIG. 8): greater than 50% | COX-I inhibition [3]: neither test compound B and E significantly inhibit COX-I

Nc1nc2c(ncn2[C@@H]2O[C@@H]3COP(=O)(O)O[C@H]3[C@H]2O)c(=O)[nH]1 [cGMP, cyclic guanosine 3',5'-monophosphate]
Kd (native bovine PDE5): 1.3 µM | Km ([4]; read-out: Km of peak B for cGMP (increasing slope)): < 1 µM | Km ([4]; read-out: apparent Km of peak B for cGMP (first, decreasing part of Eadie-Hofstee plot)): 8.4 µM

COc1ccc(C2CNC(=O)C2)cc1OC1CCCC1 (stereo not shown) [Rolipram]
effect on cAMP level (HT-29 cells (cAMP level)): increased cAMP | sensitivity of peak B / novel PDE to inhibitor [4]: insensitive

CC(=O)NC(CSC12CC(=O)OC1(C)/C(=C/c1ccc(S(C)(=O)=O)cc1)c1ccc(F)cc12)C(=O)O (racemic) [D, rac-(E)-1-(butan-1',4'-olido)-[3',4':1,2]-6-fluoro-2-methyl-3-(p-methylsulfonylbenzylidene)-1S-indanyl-N-acetylcysteine]
inhibition at 100 µM (HT-29 cells; [7]): 78% | inhibition at 100 µM [3]: < 25%

CC1=C(CC(=O)O)c2cc(F)ccc2/C1=C\c1ccc(Cl)cc1 [Compound C, (Z)-5-Fluoro-2-methyl-1-(p-chlorobenzylidene)-3-acetic acid]
inhibition at 100 µM (HT-29 cells; [7]): 80% | cGMP PDE % Inhibition at 10 μM (cGMP PDE): < 25%

CC1(C)C(=O)Nc2ccc(C3=NNC(=O)CC3)cc21 [Indolidan]
sensitivity of peak B / novel PDE to inhibitor [4]: insensitive

Clc1cccc(Nc2nnc(-c3ccccc3)c3ccccc23)c1 [MY5445, 1-(3-chloroanilino)-4-phenyphthalazine]
inhibition at 100 µM [3]: 94%

CC1=C(CC(=O)O)c2cc(F)ccc2/C1=C\c1ccc([S+](C)[O-])cc1 (stereo not shown) [sulindac]
inhibition of premalignant lesions [5]: effectively inhibit the formation of premalignant lesions

O=C(O)C1CCN(c2nc(NCc3ccc4c(c3)OCO4)c3cc(Cl)ccc3n2)CC1 [Compound E4021]
inhibition at 100 µM (HT-29 cells; Homo sapiens, HT-29, read-out: Growth % Inhibition at 100 μM): < 50%

COc1cc(/C=C2/C(C)=C(CC(=O)NCc3ccccc3)c3cc(F)ccc32)cc(OC)c1OC [Compound E, (Z)-5-Fluoro-2-methyl-1-(3,4,5-trimethoxybenzylidene)-3-indenylacetamide, N-benzyl]
apoptosis-inducing or growth-inhibiting properties ([2]; neoplastic cells): precisely the opposite | mode of inhibition of peak A (PDE peak A (PDE5)): competitively inhibited | mode of inhibition of peak B [4]: competitively inhibited | COX-I inhibition [3]: neither test compound B and E significantly inhibit COX-I

CCOC(=O)C1=C[C@]2(CC)CCCN3CCc4c(n1c1ccccc41)[C@@H]32 [Vinpocetine]
sensitivity of peak B / novel PDE to inhibitor [4]: insensitive

CCCOc1ccccc1-c1nc2nn[nH]c2c(=O)[nH]1 [Zaprinast]
sensitivity of peak B / novel PDE to inhibitor [4]: reduced sensitivity to inhibition; also recorded: zaprinast-insensitive

CCN(CC)CCSC12CC(=O)OC1(C)/C(=C/c1ccc(S(C)(=O)=O)cc1)c1ccc(F)cc12 (racemic) [A, rac-threo-(E)-1-(N,N'-diethylaminoethanethio)-1-(butan-1',4'-olido)-[3',4':1,2]-6-fluoro-2-methyl-3-(p-methylsulfonylbenzylidene)-indan]
fold induction at 100 µM [2]: < 2 | inhibition at 100 µM (HT-29 cells; [7]): 68% | cGMP PDE % Inhibition at 10 μM (cGMP PDE): < 25% | inhibition at 100 µM [3]: < 25%

CCCCCC[C@H]([C@H](C)O)n1cnc2c(N)ncnc21 (relative stereo) [EHNA]
fold induction at 100 µM [2]: < 2 | IC50 (PDE peak A (PDE5)): > 100 µM | IC50 ([4]; cGMP hydrolysis, 0.25 μM 3H-cGMP): 3.7 µM

CCCc1nn(C)c2c(=O)[nH]c(-c3cc(S(=O)(=O)N4CCN(C)CC4)ccc3OCC)nc12 [Sildenafil]
inhibition of peak A activity (PDE peak A (PDE5)): inhibited activity of peak A | effect on new cGMP-specific PDE (words, '375 application) [6]: little relative effect
